The record followed here is ChEMBL document CHEMBL3244320, “2-Acetylpyridine thiosemicarbazones. 1. A new class of potential antimalarial agents” (J Med Chem, 1979).

Each structure is given as a SMILES string. Activity calls are given as the source filed them. The calls are words filed in the database; no cut-off is given here.

In data set [1] the test system is Plasmodium berghei. Description: Antimalarial activity against Plasmodium berghei KBG 173 infected in ICR/HA Swiss mouse assessed as curative effect at 320 mg/kg, sc administered 72 hrs post infection. Also noted: dose 320 mg/kg. In kind it is functional, organism-based.
The subject of data set [2] is Plasmodium berghei. Description: Antimalarial activity against Plasmodium berghei KBG 173 infected in ICR/HA Swiss mouse assessed as increase in mean survival time at 40 mg/kg, sc administered 72 hrs post infection. In kind it is functional. The note with it: route subcutaneous.
Data set [3] concerns Plasmodium berghei. In words: Antimalarial activity against Plasmodium berghei KBG 173 infected in ICR/HA Swiss mouse assessed as increase in mean survival time at 80 mg/kg, sc administered 72 hrs post infection. The note with it: route subcutaneous. In kind it is functional.
The subject of data set [4] is Plasmodium berghei. Description: Antimalarial activity against Plasmodium berghei KBG 173 infected in ICR/HA Swiss mouse assessed as increase in mean survival time at 160 mg/kg, sc administered 72 hrs post infection. In kind it is functional. The note with it: route subcutaneous.
The subject of data set [5] is Plasmodium berghei. Description: Antimalarial activity against Plasmodium berghei KBG 173 infected in ICR/HA Swiss mouse assessed as curative effect at 160 mg/kg, sc administered 72 hrs post infection. The class given is functional, organism-based. The arrangement: dose 160 mg/kg.
Data set [6] deals with Plasmodium berghei. In words: Antimalarial activity against Plasmodium berghei KBG 173 infected in ICR/HA Swiss mouse assessed as increase in mean survival time at 640 mg/kg, sc administered 72 hrs post infection. In kind it is functional. To be noted: route subcutaneous.
In data set [7] the test system is Plasmodium berghei. Description: Antimalarial activity against Plasmodium berghei KBG 173 infected in ICR/HA Swiss mouse assessed as increase in mean survival time at 320 mg/kg, sc administered 72 hrs post infection. In kind it is functional. To be noted: route subcutaneous.
For data set [8], the system named is Mus musculus. Description: Toxicity in ICR/HA Swiss mouse infected with Plasmodium berghei KBG 173 assessed as mortality at 320 mg/kg, sc administered 72 hrs post infection measured for 6 days. In kind it is organism-based. Also noted: dose 320 mg/kg, route subcutaneous. To be noted: in vivo, 144 h.
Data set [9] relates to Mus musculus. Description: Toxicity in ICR/HA Swiss mouse infected with Plasmodium berghei KBG 173 assessed as mortality at 160 mg/kg, sc administered 72 hrs post infection measured for 6 days. The note with it: in vivo, 144 h. Also noted: dose 160 mg/kg, route subcutaneous. In kind it is organism-based.
For data set [10], the system named is Mus musculus. In words: Toxicity in ICR/HA Swiss mouse infected with Plasmodium berghei KBG 173 assessed as mortality at 640 mg/kg, sc administered 72 hrs post infection measured for 6 days. In kind it is organism-based. Also noted: dose 640 mg/kg, route subcutaneous. The note with it: in vivo, 144 h.
The test system of data set [11] is Mus musculus. Description: Toxicity in ICR/HA Swiss mouse infected with Plasmodium berghei KBG 173 assessed as mortality at 40 mg/kg, sc administered 72 hrs post infection measured for 6 days. In kind it is organism-based. Also noted: dose 40 mg/kg, route subcutaneous. To be noted: in vivo, 144 h.

On to `C/C(=N\NC(=S)Nc1ccccc1F)c1ccccn1`, for which the result in data set [1] was Active. For the same compound, the MST in data set [2] is 0 days; in data set [3], 2.6 days; in [4], 6.8 days.

With `C/C(=N\NC(=S)NC1CCCCCCC1)c1ccccn1`, the outcome in data set [5] was Active. For the same compound, the MST in [6] is 10.7 days; in data set [7], 4.8 days; in data set [2], 1.1 days; in data set [3] it was 1.2 days; in [4] it was 3.4 days.

`C/C(=N\NC(=S)NCc1ccccc1C)c1ccccn1`: the result in data set [5] was Active. Further, the MST is 8.9 days in data set [6]; 7.7 days in data set [7]; 0.1 days in data set [2]; 2.5 days in [3]; 5.9 days in [4].

Consider `CCN(CC)Cc1cc(NC(=S)N/N=C(\C)c2ccccn2)ccc1O.Cl.O`, for which the Activity entry in [8] is reported as “Toxic”. For the same compound, the MST was found to be 2 days in data set [2], 5.6 days in data set [3] and 8.8 days in data set [4].

In the case of `C/C(=N\NC(=S)Nc1cccc(C)c1)c1ccccn1`, in data set [1], the result was Active. Further, the MST in data set [7] came to 10.3 days; in [2] it was 0.4 days; in data set [3], 3 days; in data set [4] it was 7.4 days.

With `C/C(=N\NC(N)=S)c1ccccn1`, the Activity result in data set [9], in [10] and in data set [11] was “Toxic” in each case.

For the compound `C/C(=N\NC(=S)Nc1ccc(C)cc1)c1ccccn1`, in [1], the outcome was Active. The MST in data set [2] was 0.3 days; in [3] it was 2.1 days; in data set [4], 4.5 days.

For `C/C(=N\NC(=S)Nc1cccc(F)c1)c1ccccn1`, the result in [1] was Active. Also, the MST in data set [2] stood at 4.4 days; in data set [3], 5.8 days; in [4] it was 6.6 days.

For `Br.CCN(CC)CCNC(=S)N/N=C(\C)c1ccccn1`, the Activity entry in [8] and in data set [10] was “Toxic” in each case. In addition, the values for the MST in data set [2] and in data set [4] were 0.3 days and 0.5 days, respectively.
